# Measurements: ChEMBL document CHEMBL4368941, “Discovery of 3,6-diaryl-1H-pyrazolo[3,4-b]pyridines as potent anaplastic lymphoma kinase (ALK) inhibitors” (Bioorg Med Chem Lett, 2019)
# pIC50: −log10 of the molar value.
# Legend:
# [1] = biological target: ALK tyrosine kinase receptor (Homo sapiens, UniProt Q9UM73)
# Description: Inhibition of recombinant ALK (unknown origin) using peptide substrate measured after 1 hr by LanthaScreen assay
# KARPAS-299 = assay: cells; settings: Homo sapiens, KARPAS-299, 72 h
# Description: Antiproliferative activity against human KARPAS299 cells after 3 days by MTT assay
# Chain of ALK tyrosine kinase receptor (Q9UM73 whole entry): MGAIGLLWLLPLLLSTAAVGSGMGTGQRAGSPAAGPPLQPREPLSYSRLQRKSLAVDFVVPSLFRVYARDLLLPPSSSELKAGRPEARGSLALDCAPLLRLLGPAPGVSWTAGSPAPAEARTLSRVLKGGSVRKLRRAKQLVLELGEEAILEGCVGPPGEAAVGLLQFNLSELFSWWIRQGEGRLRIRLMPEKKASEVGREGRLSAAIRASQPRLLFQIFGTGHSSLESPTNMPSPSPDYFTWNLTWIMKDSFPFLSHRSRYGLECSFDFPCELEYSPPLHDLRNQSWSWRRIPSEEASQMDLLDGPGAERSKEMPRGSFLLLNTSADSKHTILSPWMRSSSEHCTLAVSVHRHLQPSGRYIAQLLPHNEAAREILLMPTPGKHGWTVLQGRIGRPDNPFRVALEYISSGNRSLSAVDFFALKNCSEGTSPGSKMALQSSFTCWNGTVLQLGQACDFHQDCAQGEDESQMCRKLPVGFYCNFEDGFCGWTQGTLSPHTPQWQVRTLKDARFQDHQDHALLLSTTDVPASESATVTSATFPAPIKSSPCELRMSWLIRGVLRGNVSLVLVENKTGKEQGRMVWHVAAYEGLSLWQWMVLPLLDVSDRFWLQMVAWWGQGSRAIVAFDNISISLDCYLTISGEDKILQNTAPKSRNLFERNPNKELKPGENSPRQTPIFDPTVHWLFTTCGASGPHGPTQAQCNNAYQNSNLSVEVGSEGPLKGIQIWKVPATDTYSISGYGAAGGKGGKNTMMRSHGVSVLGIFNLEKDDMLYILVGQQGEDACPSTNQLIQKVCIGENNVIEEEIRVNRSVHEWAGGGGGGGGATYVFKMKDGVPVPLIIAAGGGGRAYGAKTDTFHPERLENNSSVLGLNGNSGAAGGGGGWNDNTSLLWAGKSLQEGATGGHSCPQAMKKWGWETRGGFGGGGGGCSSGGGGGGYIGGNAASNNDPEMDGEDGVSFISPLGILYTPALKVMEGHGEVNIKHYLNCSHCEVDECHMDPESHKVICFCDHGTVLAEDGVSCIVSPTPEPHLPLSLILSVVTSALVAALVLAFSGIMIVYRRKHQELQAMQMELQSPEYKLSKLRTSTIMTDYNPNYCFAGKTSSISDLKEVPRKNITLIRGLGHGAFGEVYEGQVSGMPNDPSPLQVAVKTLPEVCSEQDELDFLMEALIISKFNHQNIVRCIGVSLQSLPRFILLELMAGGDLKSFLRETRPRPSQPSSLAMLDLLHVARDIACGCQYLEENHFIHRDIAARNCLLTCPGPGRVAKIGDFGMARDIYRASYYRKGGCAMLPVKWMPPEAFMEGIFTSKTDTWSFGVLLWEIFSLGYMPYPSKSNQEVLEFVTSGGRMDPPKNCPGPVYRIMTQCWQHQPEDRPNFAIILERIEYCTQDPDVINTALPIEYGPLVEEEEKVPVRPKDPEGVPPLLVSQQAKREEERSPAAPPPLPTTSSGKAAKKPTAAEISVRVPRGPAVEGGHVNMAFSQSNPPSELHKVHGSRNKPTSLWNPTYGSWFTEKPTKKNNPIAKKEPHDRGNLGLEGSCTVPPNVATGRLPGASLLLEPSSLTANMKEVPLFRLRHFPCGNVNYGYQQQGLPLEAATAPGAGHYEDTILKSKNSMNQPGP
SMILES,pIC50 [1],pIC50 (KARPAS-299)
OCC1CCCCN1Cc1ccc(-c2n[nH]c3nc(-c4ccc(O)cc4)ccc23)o1 (stereo not drawn),6.25,
Oc1ccc(-c2ccc3c(-c4ccc(CN5CCCCC5)o4)n[nH]c3n2)cc1,6.40,
CC(C)N1CCN(c2ccc(-c3n[nH]c4nc(-c5ccc(Cl)cc5)ccc34)cc2)CC1,< 5.70,< 5.00
CC(C)N1CCN(c2ccc(-c3n[nH]c4nc(-c5ccc(C(C)(C)O)cc5)ccc34)cc2)CC1,< 5.70,3.98
CC(C)N1CCN(c2ccc(-c3n[nH]c4nc(-c5cc(F)c(O)c(F)c5)ccc34)cc2)CC1,6.19,6.83
Oc1ccc(-c2ccc3c(-c4ccc(CN5CCOCC5)o4)n[nH]c3n2)cc1,7.03,
Oc1ccc(-c2ccc3c(-c4ccc(Cl)cc4)n[nH]c3n2)cc1,< 5.70,
Oc1ccc(-c2ccc3c(-c4ccc(CN5CCCC5)o4)n[nH]c3n2)cc1,6.60,
Oc1ccc(-c2ccc3c(-c4ccc(F)cc4)n[nH]c3n2)cc1,6.47,
CN(CCO)Cc1ccc(-c2n[nH]c3nc(-c4ccc(O)cc4)ccc23)o1,7.08,
CN1CCN(Cc2ccc(-c3n[nH]c4nc(-c5ccc(O)cc5)ccc34)o2)CC1,6.71,
Oc1ccc(-c2ccc3c(-c4ccccc4)n[nH]c3n2)cc1,6.60,7.62
Oc1ccc(-c2ccc3c(-c4ccc(O)cc4)n[nH]c3n2)cc1,6.89,
CC(C)N1CCN(Cc2ccc(-c3n[nH]c4nc(-c5ccc(O)cc5)ccc34)o2)CC1,6.99,
CC(C)N1CCN(c2ccc(-c3n[nH]c4nc(-c5ccc(F)cc5)ccc34)cc2)CC1,< 5.70,
COc1cc(N2CCN(C(C)C)CC2)ccc1-c1n[nH]c2nc(-c3ccc(O)cc3)ccc12,7.57,5.54
Oc1ccc(-c2ccc3c(-c4cnn(C5CCNCC5)c4)n[nH]c3n2)cc1F,7.40,5.68
CC(C)N1CCN(c2ccc(-c3n[nH]c4nc(-c5ccc(N)cc5)ccc34)cc2)CC1,6.66,< 5.00

# More lines, now with the values ahead:
pIC50 [1],pIC50 (KARPAS-299),SMILES
6.47,,Oc1ccc(-c2ccc3c(-c4ccc(N5CCCCC5)cc4)n[nH]c3n2)cc1
6.37,,Oc1ccc(-c2ccc3c(-c4ccc(N5CCOCC5)cc4)n[nH]c3n2)cc1
7.86,6.47,Oc1ccc(-c2ccc3c(-c4cnn(C5CCNCC5)c4)n[nH]c3n2)cc1
7.32,,CC(C)N1CCN(c2ccc(-c3n[nH]c4nc(-c5ccc(O)cc5)ccc34)cc2)CC1
< 5.70,< 5.70,CC(C)N1CCN(c2ccc(-c3n[nH]c4nc(-c5ccc(C#N)cc5)ccc34)cc2)CC1
7.27,,Cc1ccc(-c2n[nH]c3nc(-c4ccc(O)cc4)ccc23)o1
6.62,,COc1ccc(-c2n[nH]c3nc(-c4ccc(O)cc4)ccc23)cc1
7.28,6.58,COc1cc(N2CCN(C(C)C)CC2)ccc1-c1n[nH]c2nc(-c3ccc(O)c(F)c3)ccc12
8.80,< 5.70,CC(C)N1CCN(c2ccc(-c3n[nH]c4nc(-c5ccc(O)c(F)c5)ccc34)cc2)CC1
